Patent publication US12415834B2, “GhR-binding peptide and composition comprising same” (priority 2021, dated 2025)
pKd: −log10 of the molar value. Read-outs that look alike come from different tables or passages of the source. Starred links: 1 amine or outer side, 2 acyl side, 3 side chain; linkers in the order of their positions; H or OH if unused. Positions of bridges follow the written chain, without caps; N, C: chain ends. Non-standard residues stand in square brackets, D forms with d. Residues, ends and D or L forms follow the SMILES beside them. Groups on a side chain read outwards from the residue. *: point of attachment. X12 = NC(=O)[C@H](CCCCN*)NC(=O)CC[C@H](NC(=O)CC[C@H](NC(=O)CCCc1ccc(-c2ccccc2)cc1)C(=O)O)C(=O)O; X3 = NC(=O)[C@H](CCCCN*)NC(=O)CC[C@H](NC(=O)CC[C@H](NC(=O)CCCCCCCCCCCCCCC(=O)O)C(=O)O)C(=O)O; X19 = Cc1ccc(CCCC(=O)N[C@@H](CCC(=O)N[C@@H](CCC(=O)N[C@@H](CCCCN*)C(N)=O)C(=O)O)C(=O)O)cc1; X10 = NC(=O)[C@H](CCCCN*)NC(=O)CC[C@H](NC(=O)CC[C@H](NC(=O)CCCc1ccc(I)cc1)C(=O)O)C(=O)O; X5 = NC(=O)[C@H](CCCCN*)NC(=O)CC[C@H](NC(=O)CC[C@H](NC(=O)CCCCCc1ccccc1)C(=O)O)C(=O)O; X18 = NC(=O)[C@H](CCCCN*)NC(=O)CC[C@H](NC(=O)CC[C@H](NC(=O)CCCc1ccccc1)C(=O)O)C(=O)O; X17 = NC(=O)[C@H](CCCCN*)NC(=O)CC[C@H](NC(=O)CCCc1ccc(I)cc1)C(=O)O; Trp(1-CH2CO) = O=C([C@H](Cc1cn(CC(=O)[*:3])c2ccccc12)N[*:1])[*:2]; Trp(5-OH) = N[C@@H](Cc1c[nH]c2ccc(O)cc12)C(=O)O; Phe(4-COOH) = N[C@@H](Cc1ccc(C(=O)O)cc1)C(=O)O; Piperazinyl(4-CH2COOH) = O=C(O)CN1CCN(*)CC1; X2 = O=C([C@@H]1CCCN1[*:2])[*:1]; hArg = N=C(N)NCCCC[C@H](N)C(=O)O; NMeK = CN[C@@H](CCCCN)C(=O)O; X16 = CN(CC(=O)[*:1])[*:2]; X4 = O=C(CN[*:2])[*:1]; Aib = CC(C)(N)C(=O)O; CO = O=C([*:1])[*:2]

Molecular target: T1, Recombinant human GhR-Fc protein (Homo sapiens, UniProt P10912)
T1 construct: purchased R&D Systems
T1 sequence (P10912 with tags, fused parts or gaps limits assumed): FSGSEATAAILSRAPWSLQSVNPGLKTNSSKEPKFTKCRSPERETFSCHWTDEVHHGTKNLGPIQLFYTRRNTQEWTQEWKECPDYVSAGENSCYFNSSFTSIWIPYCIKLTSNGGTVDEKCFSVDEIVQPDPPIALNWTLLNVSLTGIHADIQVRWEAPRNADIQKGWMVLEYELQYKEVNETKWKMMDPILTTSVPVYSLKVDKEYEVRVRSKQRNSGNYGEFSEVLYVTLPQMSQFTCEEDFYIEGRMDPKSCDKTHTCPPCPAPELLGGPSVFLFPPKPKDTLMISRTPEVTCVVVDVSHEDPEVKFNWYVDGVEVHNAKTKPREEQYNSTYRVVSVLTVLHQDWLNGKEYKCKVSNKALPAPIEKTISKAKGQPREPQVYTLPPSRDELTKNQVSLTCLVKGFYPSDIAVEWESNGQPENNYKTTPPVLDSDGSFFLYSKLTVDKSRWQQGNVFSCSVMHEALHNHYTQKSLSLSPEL
Assay: SPR binding assay (Biacore T200, single-cycle kinetics) of peptides against immobilized human GhR-Fc
Method: SPR assay was performed using Biacore T200 (cytiva: Former GE Healthcare). After the equilibration of Series S Sensor Chip CM5 (produced by cytiva: Former GE Healthcare) with Running Buffer (HBS-EP with 1% (v/v) DMSO), an EDC/NHS mixture was injected at a flow rate of 10 μL/min for 7 minutes to thereby activate the functional groups on sensor chip. Recombinant human GhR-Fc protein (R&D Systems) in 10 mM Acetate (pH 4.0) was injected immobilized to at a flow rate of 5 μL/min. It took 7 minutes to immobilize the GhR on the substrate surfaces of the sensor chip. Then Ethanolamine was injected at a flow rate of 10 μL/min for 7 minutes. 1M Ethanolamine (aq.) was injected at a flow rate of 10 μL/min for 420 seconds for capping.
Using these Peptide Samples, kinetics of peptides against human GhR-Fc protein were measured. The method adopted for sample measurement was a single-cycle kinetics method. The analysis was conducted using the evaluation software provided with Biacore T200. A DMSO correction curve obtained by solvent correction measurements was applied for the analysis. Kinetics fitting was done on the difference data obtained by subtracting the baseline data from sample measurement data. KD values were calculated based on the association rate constant (ka) and dissociation rate constant (kd). […]

[1] = SPR, hGhR, Table 1 bicyclic peptides, KD calculated from ka and kd, read-out: KD

Row | SMILES | pKd [1] | pKd
1 | CC(C)[C@@H]1NC(=O)[C@H](C(C)C)NC(=O)[C@@H]2CCCCNC(=O)Cn3cc(c4ccccc43)C[C@H](NC(=O)[C@H](CC(N)=O)NC(=O)[C@H](CO)NC1=O)C(=O)N[C@@H](Cc1ccc(O)cc1)C(=O)N[C@@H](CCCCN)C(=O)N[C@@H](Cc1c[nH]c3ccc(O)cc13)C(=O)NC(C)(C)C(=O)N[C@@H](C(C)C)C(=O)N[C@H](C(=O)NCC(N)=O)CSCC(=O)N[C@@H](Cc1ccc(O)cc1)C(=O)N2C [Compound 1] ({CH2CO}-Y[NMeK]VVSN[Trp(1-CH2CO)]YK[Trp(5-OH)][Aib]VCG-NH2; lactam 2-7; thioether N-13; C-terminus assumed) | 9.15 | 
2 | CC(C)[C@@H]1NC(=O)[C@H](C(C)C)NC(=O)[C@@H]2CCCCNC(=O)CNC(=O)Cn3cc(c4ccccc43)C[C@H](NC(=O)[C@H](CC(N)=O)NC(=O)[C@H](CO)NC1=O)C(=O)N[C@@H](Cc1ccc(O)cc1)C(=O)N[C@@H](CCCCN)C(=O)N[C@@H](Cc1c[nH]c3ccc(O)cc13)C(=O)NC(C)(C)C(=O)N[C@@H](C(C)C)C(=O)N[C@H](C(=O)NCC(N)=O)CSCC(=O)N[C@@H](Cc1ccc(O)cc1)C(=O)N2C [Compound 2] ({CH2CO}-Y[NMeK]VVSN[Trp(1-CH2CO)]YK[Trp(5-OH)][Aib]VCG-NH2; linker 2-7 via X4; thioether N-13; C-terminus assumed) | 8.91 | 
3 | CC(C)[C@@H]1NC(=O)[C@H](C(C)C)NC(=O)[C@@H]2CCCCNC(=O)CN(C)C(=O)Cn3cc(c4ccccc43)C[C@H](NC(=O)[C@H](CC(N)=O)NC(=O)[C@H](CO)NC1=O)C(=O)N[C@@H](Cc1ccc(O)cc1)C(=O)N[C@@H](CCCCN)C(=O)N[C@@H](Cc1c[nH]c3ccc(O)cc13)C(=O)NC(C)(C)C(=O)N[C@@H](C(C)C)C(=O)N[C@H](C(=O)NCC(N)=O)CSCC(=O)N[C@@H](Cc1ccc(O)cc1)C(=O)N2C [Compound 3] ({CH2CO}-Y[NMeK]VVSN[Trp(1-CH2CO)]YK[Trp(5-OH)][Aib]VCG-NH2; linker 2-7 via X16; thioether N-13) | 8.77 | 
4 | CC(C)[C@@H]1NC(=O)[C@H](C(C)C)NC(=O)[C@@H]2CCCCNC(=O)[C@@H]3CCCN3C(=O)Cn3cc(c4ccccc43)C[C@H](NC(=O)[C@H](CC(N)=O)NC(=O)[C@H](CO)NC1=O)C(=O)N[C@@H](Cc1ccc(O)cc1)C(=O)N[C@@H](CCCCN)C(=O)N[C@@H](Cc1c[nH]c3ccc(O)cc13)C(=O)NC(C)(C)C(=O)N[C@@H](C(C)C)C(=O)N[C@H](C(=O)NCC(N)=O)CSCC(=O)N[C@@H](Cc1ccc(O)cc1)C(=O)N2C [Compound 4] ({CH2CO}-Y[NMeK]VVSN[Trp(1-CH2CO)]YK[Trp(5-OH)][Aib]VCG-NH2; linker 2-7 via X2; thioether N-13) | 8.97 | 
5 | CC(C)[C@@H]1NC(=O)[C@H](C(C)C)NC(=O)[C@@H]2CCCCNC(=O)Cn3cc(c4ccccc43)C[C@H](NC(=O)[C@H](CC(N)=O)NC(=O)[C@H](CO)NC1=O)C(=O)N[C@@H](Cc1ccc(C(=O)O)cc1)C(=O)N[C@@H](CCCCNC(=N)N)C(=O)N[C@@H](Cc1c[nH]c3ccc(O)cc13)C(=O)NC(C)(C)C(=O)N[C@@H](C(C)C)C(=O)N[C@H](C(=O)NCCCC[C@H](NC(=O)CC[C@H](NC(=O)CC[C@H](NC(=O)CCCc1ccc(I)cc1)C(=O)O)C(=O)O)C(N)=O)CSCC(=O)N[C@@H](Cc1ccc(C(=O)O)cc1)C(=O)N2C [Compound 7] ({CH2CO}-[Phe(4-COOH)][NMeK]VVSN[Trp(1-CH2CO)][Phe(4-COOH)][hArg][Trp(5-OH)][Aib]VC-X10; lactam 2-7; thioether N-13) | 9.02 | 
6 | CC(C)[C@@H]1NC(=O)[C@H](C(C)C)NC(=O)[C@@H]2CCCCNC(=O)Cn3cc(c4ccccc43)C[C@H](NC(=O)[C@H](CC(N)=O)NC(=O)[C@H](CO)NC1=O)C(=O)N[C@@H](Cc1ccc(C(=O)O)cc1)C(=O)N[C@@H](CCCCN)C(=O)N[C@@H](Cc1c[nH]c3ccc(O)cc13)C(=O)NC(C)(C)C(=O)N[C@@H](C(C)C)C(=O)N[C@H](C(=O)NCCCC[C@H](NC(=O)CC[C@H](NC(=O)CC[C@H](NC(=O)CCCc1ccccc1)C(=O)O)C(=O)O)C(N)=O)CSCC(=O)N[C@@H](Cc1ccc(C(=O)O)cc1)C(=O)N2C [Compound 10] ({CH2CO}-[Phe(4-COOH)][NMeK]VVSN[Trp(1-CH2CO)][Phe(4-COOH)]K[Trp(5-OH)][Aib]VC-X18; lactam 2-7; thioether N-13) | 8.69 | 
7 | CC(C)[C@@H]1NC(=O)[C@H](C(C)C)NC(=O)[C@@H]2CCCCNC(=O)Cn3cc(c4ccccc43)C[C@H](NC(=O)[C@H](CC(N)=O)NC(=O)[C@H](CO)NC1=O)C(=O)N[C@@H](Cc1ccc(C(=O)O)cc1)C(=O)N[C@@H](CCCCN)C(=O)N[C@@H](Cc1c[nH]c3ccc(O)cc13)C(=O)NC(C)(C)C(=O)N[C@@H](C(C)C)C(=O)N[C@H](C(=O)NCCCC[C@H](NC(=O)CC[C@H](NC(=O)CC[C@H](NC(=O)CCCCCCCCCCCCCCC(=O)O)C(=O)O)C(=O)O)C(N)=O)CSCC(=O)N[C@@H](Cc1ccc(C(=O)O)cc1)C(=O)N2C [Compound 11] ({CH2CO}-[Phe(4-COOH)][NMeK]VVSN[Trp(1-CH2CO)][Phe(4-COOH)]K[Trp(5-OH)][Aib]VC-X3; lactam 2-7; thioether N-13) | 8.55 | 
8 | Cc1ccc(CCCC(=O)N[C@@H](CCC(=O)N[C@@H](CCC(=O)N[C@@H](CCCCNC(=O)[C@@H]2CSCC(=O)N[C@@H](Cc3ccc(C(=O)O)cc3)C(=O)N(C)[C@H]3CCCCNC(=O)Cn4cc(c5ccccc54)C[C@H](NC(=O)[C@H](CC(N)=O)NC(=O)[C@H](CO)NC(=O)[C@H](C(C)C)NC(=O)[C@H](C(C)C)NC3=O)C(=O)N[C@@H](Cc3ccc(C(=O)O)cc3)C(=O)N[C@@H](CCCCN)C(=O)N[C@@H](Cc3c[nH]c4ccc(O)cc34)C(=O)NC(C)(C)C(=O)N[C@@H](C(C)C)C(=O)N2)C(N)=O)C(=O)O)C(=O)O)cc1 [Compound 12] ({CH2CO}-[Phe(4-COOH)][NMeK]VVSN[Trp(1-CH2CO)][Phe(4-COOH)]K[Trp(5-OH)][Aib]VC-X19; lactam 2-7; thioether N-13) | 8.71 | 
9 | CC(C)[C@@H]1NC(=O)[C@H](C(C)C)NC(=O)[C@@H]2CCCCNC(=O)Cn3cc(c4ccccc43)C[C@H](NC(=O)[C@H](CC(N)=O)NC(=O)[C@H](CO)NC1=O)C(=O)N[C@@H](Cc1ccc(C(=O)O)cc1)C(=O)N[C@@H](CCCCN)C(=O)N[C@@H](Cc1c[nH]c3ccc(O)cc13)C(=O)NC(C)(C)C(=O)N[C@@H](C(C)C)C(=O)N[C@H](C(=O)NCCCC[C@H](NC(=O)CC[C@H](NC(=O)CCCc1ccc(I)cc1)C(=O)O)C(N)=O)CSCC(=O)N[C@@H](Cc1ccc(C(=O)O)cc1)C(=O)N2C [Compound 13] ({CH2CO}-[Phe(4-COOH)][NMeK]VVSN[Trp(1-CH2CO)][Phe(4-COOH)]K[Trp(5-OH)][Aib]VC-X17; lactam 2-7; thioether N-13) | 8.87 | 
10 | CC(C)[C@@H]1NC(=O)[C@H](C(C)C)NC(=O)[C@@H]2CCCCNC(=O)Cn3cc(c4ccccc43)C[C@H](NC(=O)[C@H](CC(N)=O)NC(=O)[C@H](CO)NC1=O)C(=O)N[C@@H](Cc1ccc(C(=O)O)cc1)C(=O)N[C@@H](CCCCN)C(=O)N[C@@H](Cc1c[nH]c3ccc(O)cc13)C(=O)NC(C)(C)C(=O)N[C@@H](C(C)C)C(=O)N[C@H](C(=O)NCCCC[C@H](NC(=O)CC[C@H](NC(=O)CC[C@H](NC(=O)CCCc1ccc(-c3ccccc3)cc1)C(=O)O)C(=O)O)C(N)=O)CSCC(=O)N[C@@H](Cc1ccc(C(=O)O)cc1)C(=O)N2C [Compound 15] ({CH2CO}-[Phe(4-COOH)][NMeK]VVSN[Trp(1-CH2CO)][Phe(4-COOH)]K[Trp(5-OH)][Aib]VC-X12; lactam 2-7; thioether N-13) |  | 8.79
11 | CC(C)[C@@H]1NC(=O)[C@H](C(C)C)NC(=O)[C@@H]2CCCCNC(=O)Cn3cc(c4ccccc43)C[C@H](NC(=O)[C@H](CC(N)=O)NC(=O)[C@H](CO)NC1=O)C(=O)N[C@@H](Cc1ccc(C(=O)O)cc1)C(=O)N[C@@H](CCCCN)C(=O)N[C@@H](Cc1c[nH]c3ccc(O)cc13)C(=O)NC(C)(C)C(=O)N[C@@H](C(C)C)C(=O)N[C@H](C(=O)NCCCC[C@H](NC(=O)CC[C@H](NC(=O)CC[C@H](NC(=O)CCCCCc1ccccc1)C(=O)O)C(=O)O)C(N)=O)CSCC(=O)N[C@@H](Cc1ccc(C(=O)O)cc1)C(=O)N2C [Compound 16] ({CH2CO}-[Phe(4-COOH)][NMeK]VVSN[Trp(1-CH2CO)][Phe(4-COOH)]K[Trp(5-OH)][Aib]VC-X5; lactam 2-7; thioether N-13) | 8.71 | 
12 | CC(C)[C@@H]1NC(=O)[C@H](C(C)C)NC(=O)[C@@H]2CCCCNC(=O)Cn3cc(c4ccccc43)C[C@H](NC(=O)[C@H](CC(N)=O)NC(=O)[C@H](CO)NC1=O)C(=O)N[C@@H](Cc1ccc(O)cc1)C(=O)N[C@@H](CCCCNC(=O)N1CCN(CC(=O)O)CC1)C(=O)N[C@@H](Cc1c[nH]c3ccc(O)cc13)C(=O)NC(C)(C)C(=O)N[C@@H](C(C)C)C(=O)N[C@H](C(=O)NCCCC[C@H](NC(=O)CC[C@H](NC(=O)CC[C@H](NC(=O)CCCCCCCCCCCCCCC(=O)O)C(=O)O)C(=O)O)C(N)=O)CSCC(=O)N[C@@H](Cc1ccc(C(=O)O)cc1)C(=O)N2C [Compound 17] ({CH2CO}-[Phe(4-COOH)][NMeK]VVSN[Trp(1-CH2CO)]YK([CO-Piperazinyl(4-CH2COOH)])[Trp(5-OH)][Aib]VC-X3; lactam 2-7; thioether N-13) | 8.39 | 
